Experimental data: ChEMBL document CHEMBL1158248, “Pessoine and spinosine, two catecholic berbines from Annona spinescens” (1996)

Legend:
Assay type in all cases: functional
Trypanosoma cruzi = assay: Trypanocidal activity against Trypanosoma cruzi trypomastigote assessed as lysis of trypomastigotes at 250 ug/mL after 24 hrs relative to control
Leishmania amazonensis [1] = assay: Antileishmanial against Leishmania amazonensis promastigote LV 79 assessed as total lysis of parasites after 48 hrs
Leishmania donovani [2] = assay: Antileishmanial against Leishmania donovani promastigote PP-75 assessed as total lysis of parasites after 48 hrs
Leishmania braziliensis [3] = assay: Antileishmanial against Leishmania brasiliensis 2903 promastigote assessed as total lysis of parasites after 48 hrs
Leishmania amazonensis [4] = assay: Antileishmanial against Leishmania amazonensis promastigote LV 79 assessed as lysis of parasites at 50 ug/mL after 48 hrs
Leishmania braziliensis [5] = assay: Antileishmanial against Leishmania brasiliensis 2903 promastigote assessed as lysis of parasites at 100 ug/mL after 48 hrs
Leishmania donovani [6] = assay: Antileishmanial against Leishmania donovani promastigote PP-75 assessed as lysis of parasites at 25 ug/mL after 48 hrs
Leishmania donovani [7] = assay: Antileishmanial against Leishmania donovani promastigote PP-75 assessed as lysis of parasites at 10 ug/mL after 48 hrs
Leishmania amazonensis [8] = assay: Antileishmanial against Leishmania amazonensis promastigote LV 79 assessed as lysis of parasites at 10 ug/mL after 48 hrs

| Compound | Activity (Trypanosoma cruzi) | Activity (Leishmania amazonensis [1]) | Activity (Leishmania donovani [2]) | further results |
| --- | --- | --- | --- | --- |
| COc1cc2c3c(c1OC)C1(C=CC(=O)C=C1)C[C@@H]3NCC2 [STEPHARINE] | 65% |  |  |  |
| CN(C)c1ccc(C(=C2C=CC(=[N+](C)C)C=C2)c2ccc(N(C)C)cc2)cc1.[Cl-] [GENTIAN VIOLET] | 100% |  |  |  |
| COC(=O)/C=C/c1cc(OC)c(O)c(OC)c1 [METHYL SINAPATE] | 44% |  |  |  |
| MEGLUMINE ANTIMONATE |  | > 100 µg/mL | > 100 µg/mL | Activity (Leishmania braziliensis [3]): > 100 µg/mL |
| COc1cc2c(cc1O)-c1c(O)c(OC)cc3c1[C@H](C2)NCC3 [NORBRACTEOLINE] | 62% |  |  |  |
| O=C1c2ccccc2-c2c3c(cc4ccnc1c24)OCO3 [LIRIODENINE] | 50% | 100 µg/mL | 100 µg/mL | Activity (Leishmania amazonensis [4]): 90%; Activity (Leishmania braziliensis [5]): 90%; Activity (Leishmania donovani [6]): 90% |
| c1ccc2c(c1)C[C@H]1NCCc3cc4c(c-2c31)OCO4 [ANONAINE] | 99% | 25 µg/mL | 100 µg/mL | Activity (Leishmania donovani [7]): 90%; Activity (Leishmania braziliensis [3]): 50 µg/mL; Activity (Leishmania amazonensis [8]): 90% |
| COc1cc2c(cc1O)[C@@H]1Cc3cc(O)c(O)cc3CN1CC2 | 55% |  |  |  |
| COc1cc2c3c(c1O)-c1cc4c(cc1CC3N(C(C)=O)CC2)OCO4 (stereo unspecified) [ACETYLNORDOMESTICINE] | 60% |  |  |  |
